This test has as its system Colon organoid. The format is functional, Homo sapiens.

With `Cc1c(NC(=O)c2ccc(C(C)(C)C)cc2)cccc1-c1cn(C)c(=O)c(Nc2ccc(C(=O)N3CCOCC3)cc2)n1`, the “Cell Viability Ratio” value came out at 0.9821. Regarding `CCOC(=O)c1c(/C(C#N)=C\N)c2ccc(Cl)c(Cl)c2n1C`, the “Cell Viability Ratio” value stood at 1.055.

For `Cl.Cl.Cl.c1ccc(N2CCN(Cc3nc4ccccc4[nH]3)CC2)nc1`, the “Cell Viability Ratio” value came to 0.9546. For `O=C(Nc1cccnn1)N1CCC(=Cc2cccc(Oc3ccc(C(F)(F)F)cn3)c2)CC1`, the “Cell Viability Ratio” value is on record as 0.957.

Turning to `COc1cc(Nc2nccc(-c3cnn4nc(OC)ccc34)n2)cc(C(F)(F)F)c1`, the “Cell Viability Ratio” value is 1.735.

`Cc1ccc(NC(=O)Nc2cc(C(F)(F)F)ccc2F)cc1Nc1ccc2c(c1)NC(=O)/C2=C\c1ccc[nH]1`: the “Cell Viability Ratio” value was found to be 0.7659. For `CCCCNc1ncc(-c2ccc(CN3CCOCC3)cn2)c(N[C@H]2CC[C@H](O)CC2)n1`, the “Cell Viability Ratio” value was 1.102. For the compound `COc1cc(-c2cn([C@H]3CCc4c(F)cccc4N(CC(F)(F)F)C3=O)nn2)ccc1-n1cnc(C)c1`, the “Cell Viability Ratio” value was 1.087.

Consider `Clc1cccc(-c2nnnn2Cc2cccnc2)c1Cl`, for which the “Cell Viability Ratio” value is on record as 0.9298. In the case of `Cc1nc(N2CC[C@H](O)C2)ncc1-c1cc(C(F)(F)F)cc2[nH]ncc12`, the “Cell Viability Ratio” value turned out to be 1.041. Next, `CCOc1cn(-c2ccc(F)cc2C)nc1C(=O)Nc1ccc(Oc2ccnc3cc(OC)c(OC)cc23)c(F)c1`: 0.8903; `Cc1c(C(=O)Nc2ccc(Oc3ccnc4[nH]cc(-c5ccccc5)c34)c(F)c2)c(=O)n(-c2ccc(F)cc2)n1C`: 0.9213; `CCNC(=O)c1cc2c(N3CCOC[C@@H]3C)ccnc2n1C`: 1.086. Then `CCNC(=O)c1cc2c(N3CCOC[C@@H]3C)ccnc2[nH]1`, with 0.9047. For the compound `COc1cc(Nc2ccnc3ccc(Br)cc23)cc(OC)c1OC`, the “Cell Viability Ratio” value came out at 1.477. Next, `CCN(CC)S(=O)(=O)Nc1cccc(-c2ccc3c(NC(=O)C4CC4)n[nH]c3c2)c1`: 1.062. Regarding `CN(C)C(=O)Cn1cc(-c2ccc(-c3cncc4ccccc34)cc2)cn1`, the “Cell Viability Ratio” value is reported as 0.9698. Then `CC(C)C(=O)Nc1n[nH]c2cc(-c3cccc(NS(=O)(=O)C4CC4)c3)ccc12`, with 1.005; and `COc1cc(N(C)c2ccnc3ccc(C(F)(F)F)cc23)cc(OC)c1OC`, with 0.896.

As to `CN1CCN(Cc2cc(NC(=O)c3ccc4c(c3)CN(c3ccccc3)CC4)cc(C(F)(F)F)c2)CC1`, the “Cell Viability Ratio” value was 1.189.

On to `Cc1cn(-c2cc(NC(=O)c3ccc4c(c3)CN(c3cncnc3)C[C@@H]4C)cc(C(F)(F)F)c2)cn1`, for which the “Cell Viability Ratio” value amounted to 1.531. With `CN(C)C(=O)/C(C#N)=C/c1ccc(-c2nc3cnc4[nH]ccc4c3n2C2CCCCC2)o1`, the “Cell Viability Ratio” value is 0.9378. Turning to `Cl.Cl.NC1(c2ccc(-c3nc4ccn5c(=O)[nH]nc5c4cc3-c3ccccc3)cc2)CCC1`, the “Cell Viability Ratio” value is 1.463.

With `Cn1cc(-c2ccc3occ(-c4ccccc4-c4ccccc4)c3n2)cn1`, the “Cell Viability Ratio” value was determined as 0.9405. On to `Cc1cccc(-c2cnc3occ(-c4ccc(C(=O)O)c(C5CCCC5)c4)c3c2)c1`, for which the “Cell Viability Ratio” value was 0.9583. Next, `COc1cc(-c2cn([C@H]3CCc4ccccc4N(CC(F)(F)F)C3=O)nn2)ccc1-n1ccc(C)n1`: 0.9931; `C[C@@H](c1cccc(CN)c1)n1cc(Cl)cc(C(N)=O)c1=N.Cl`: 1.078. `Cn1cc(-c2ccc3occ(-c4cccc(-c5ccncc5)c4)c3n2)cn1`: the “Cell Viability Ratio” value was 0.9731. In the case of `CCCCN(CCCC)C(=O)CN1C[C@H](c2cc(OC)c3c(c2)OCO3)[C@@H](C(=O)O)[C@@H]1CC(C)(C)CCC.Cc1ccc(S(=O)(=O)O)cc1`, the “Cell Viability Ratio” value was 0.9627.

Take `O=C(NCCCN1CCOC1=O)c1cnc(NCc2cc(Br)ccc2Br)nc1NC1CCCC1`: the “Cell Viability Ratio” value is 0.9691. Then `CCN(Cc1ccc(Cl)cc1)c1ncc(C(=O)NCCCN2CCCC2=O)c(NC2CCCC2)n1`, with 1.023; and `O=C(NCc1ccccc1)c1ccc(S(=O)(=O)NCc2ccccc2)cc1`, with 1.216; and `O=C(Nc1cccnn1)N1CC(C/C=C/c2cncc(Oc3ccc(C(F)(F)F)cn3)n2)C1`, with 0.9954. With `O=C(O)c1ccc(-c2coc3ncc(-c4ccccc4)cc23)cc1Cl`, the “Cell Viability Ratio” value is 0.9757. In the case of `CCCCN(Cc1ccccc1)C(=O)c1ccc(S(=O)(=O)Nc2ccccc2)cc1`, the “Cell Viability Ratio” value was found to be 1.3021. On to `CCCCN(CCCC)C(=O)CN1C[C@@H](c2cc(OC)c3c(c2)OCO3)[C@H](C(=O)O)[C@H]1CC(C)(C)CCC.Cl`, for which the “Cell Viability Ratio” value is recorded as 0.8768. As for `CN(C)C(=O)/C(C#N)=C/c1ccc(-c2nc3cnc4c(ccn4C)c3n2C2CCCCC2)o1`, the “Cell Viability Ratio” value stood at 0.859. Then `c1ccc2oc(-c3csc(C4CCN(Cc5nc6ncccc6[nH]5)CC4)n3)cc2c1`, with 0.6127; and `COc1cc(Nc2nc(C)cc(-c3cnn4nc(OC)ccc34)n2)cc(C(F)(F)F)c1`, with 0.9824. Next, `CN(C)C(=O)Cn1cc(-c2ccc(-c3nnc4ccccn34)cc2)cn1`: 1.225; `CN(C)C(=O)N1CC[C@H](NC2=Nc3cc(F)ccc3N(CC(F)F)c3ccc(Cl)cc32)C1`: 0.9552; `CN(C)[C@@H]1CCN(c2cc(-c3ccccc3)nc3ccnn23)C1` [(R)-ZINC-3573]: 0.9989.

Consider `CN(C)[C@H]1CCN(c2cc(-c3ccccc3)nc3ccnn23)C1` [(S)-ZINC-3573], for which the “Cell Viability Ratio” value is 1.093.

Turning to `Cn1cncc1[C@@](O)(COc1ccc(C#N)cc1-c1ccc(OC(F)(F)F)cc1)c1ccc(C#N)cc1` [A-108], the “Cell Viability Ratio” value was 0.984.

With `CCC(=N\O)/C(C)=C/c1ccc(F)c(C)c1` [A-226], the “Cell Viability Ratio” value is 1.032. `CNC(=O)Nc1ccc2c(c1)CC[C@@]21OC(=O)N(CC(=O)N(Cc2ccc(F)cc2)[C@@H](C)C(F)(F)F)C1=O` [A-485]: the “Cell Viability Ratio” value was found to be 0.9163. With `CNC(=O)Nc1ccc2c(c1)[C@@]1(CC2)OC(=O)N(CC(=O)N(Cc2ccc(F)cc2)[C@@H](C)C(F)(F)F)C1=O` [A-486], the “Cell Viability Ratio” value turned out to be 0.9599. For `CCCCN(CCCC)C(=O)CN1C[C@@H](c2cc(OC)c3c(c2)OCO3)[C@H](C(=O)O)[C@H]1CC(C)(C)CCC` [A-545], the “Cell Viability Ratio” value is 1.095.

Regarding `CCCOc1ccc([C@H]2[C@H](C(=O)O)[C@@H](c3ccc4c(c3)OCO4)CN2CC(=O)Nc2c(CC)cccc2CC)cc1` [A-192621], the “Cell Viability Ratio” value is on record as 1.0774. Next, `O=C(NS(=O)(=O)c1ccc(NCC2CCOCC2)c([N+](=O)[O-])c1)c1ccc(N2CCN(Cc3ccc(C(F)(F)F)cc3-c3ccc(Cl)cc3)CC2)cc1Oc1cnc2[nH]ccc2c1` [A-1210227]: 0.9477; `CO[C@H]1CC[C@H](CNc2ccc(S(=O)(=O)NC(=O)c3ccc(N4CCN(CC5=C(c6ccc(Cl)cc6)CC(C)(C)CC5)CC4)cc3Oc3cnc4[nH]ccc4c3)cc2[N+](=O)[O-])CC1` [A-1211212]: 0.9488; `COc1ccc2c(c1)O[C@H](c1ccc(OC)c(OC)c1)C[C@@H]2NC(=O)C1(c2ccc3c(c2)OC(F)(F)O3)CC1` [A-1596584]: 0.985.

The values above are taken from ChEMBL document CHEMBL5724803, “Viability screening in matched tumor and normal assay results for EUbOPEN Chemogenomics Library” (2024).
